Reference: patent US20250115558A1, “PYRIDAZINE DERIVATIVES AND RELATED USES” (NodThera Limited, priority 2023, published 2025)
Structures can show the parent of a compound that is named as a salt.

What was measured:
[1] = tested on: THP-1; experiment: THP-1 IC50 assay; type: cell-based; details: Homo sapiens; THP-1 cells
[2] = tested on: IL-1β release upon NLRP3 activation in peripheral blood mononuclear cells (PBMC); experiment: PBMC IC50 Determination Assay; type: cell-based; details: Homo sapiens; inhibition of IL-1β release; LPS-primed PBMC stimulated with ATP or nigericin
How it was run: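 Human PBMC from buffy coats primed 3 h with LPS (1 μg/mL in protocol B), then compound for 30 min, then ATP (5 mM) or nigericin (10 μM; protocol A only) for 1 h. IL-1β released into medium measured by ELISA at 450 nm (protocol A) or HTRF at […] (protocol B).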

Work on `Cc1cc(C(F)(F)F)cc(O)c1-c1ccc(CN2CC(C)CC2=O)nn1` (centres unmarked) [Compound 46, 1-((6-(2-Hydroxy-6-methyl-4-(trifluoromethyl)phenyl)pyridazin-3-yl)methyl)-4-methylpyrrolidin-2-one] yielded an IC50 [1] of 1000 to 3000 nM and an IC50 [2] of 1000 to 3000 nM.

Work on `Cc1cc(-c2ccc(CNC3CCOCC3)nn2)c(O)cc1C(F)(F)F` [Compound 15, 4-Methyl-2-(6-(((tetrahydro-2H-pyran-4-yl)amino)methyl)pyridazin-3-yl)-5-(trifluoromethyl)phenol] yielded an IC50 [1] of no less than 10000 nM and an IC50 [2] of no less than 10000 nM.

With `Cc1cc(C(F)(F)F)cc(O)c1-c1ccc(CNc2conc2C)nn1` [Compound 55, 3-Methyl-2-(6-(((3-methylisoxazol-4-yl)amino)methyl)pyridazin-3-yl)-5-(trifluoromethyl)phenol] the IC50 [1] was 500 to 1000 nM and the IC50 [2] was 500 to 1000 nM.

In the case of `CC(=O)N1CCC(OCc2ccc(-c3c(C)cc(Cl)cc3O)nn2)C1` (centres unmarked) [Compound 68, 1-(3-((6-(4-Chloro-2-hydroxy-6-methylphenyl)pyridazin-3-yl)methoxy)pyrrolidin-1-yl)ethan-1-one], the IC50 [1] is reported as 500 to 1000 nM and the IC50 [2] is reported as 500 to 1000 nM.

`Cc1cc(C(F)(F)F)cc(O)c1-c1ccc(CNC2CCSCC2)nn1` [Compound 136] was tested, and the IC50 [1] was 500 to 1000 nM and the IC50 [2] was 500 to 1000 nM.

`Cc1cc(C(F)(F)F)cc(O)c1-c1ccc(CNCC(F)F)nn1` [Compound 96] showed an IC50 [1] of 500 to 1000 nM and an IC50 [2] of less than 500 nM.

Work on `Cc1cc(C(F)(F)F)cc(O)c1-c1ccc(CN2C(=O)CCC2(C)C)nn1` [Compound 47, 1-((6-(2-Hydroxy-6-methyl-4-(trifluoromethyl)phenyl)pyridazin-3-yl)methyl)-5,5-dimethylpyrrolidin-2-one] yielded an IC50 [1] of 3000 to 10000 nM and an IC50 [2] of 1000 to 3000 nM.

`Cc1cc(Cl)cc(O)c1-c1ccc(CN(C)[C@@H]2CCOC2)nn1` [Compound 58, (R)-5-Chloro-3-methyl-2-(6-((methyl(tetrahydrofuran-3-yl)amino)methyl)pyridazin-3-yl)phenol] gave an IC50 [1] of 1000 to 3000 nM and an IC50 [2] of 1000 to 3000 nM.

`Cc1cc(C(F)(F)F)cc(O)c1-c1ccc(CNc2cnccn2)nn1` [Compound 146] gave an IC50 [1] of 500 to 1000 nM and an IC50 [2] of 500 to 1000 nM.

With `Cc1c(C(F)(F)F)ccc(-c2ccc(CNC3CCOCC3)nn2)c1O` [Compound 9, 2-Methyl-6-(6-(((tetrahydro-2H-pyran-4-yl)amino)methyl)pyridazin-3-yl)-3-(trifluoromethyl)phenol] the IC50 [1] was no less than 10000 nM and the IC50 [2] was no less than 10000 nM.

Work on `Cc1cc(NCc2ccc(-c3c(C)cc(C(F)(F)F)cc3O)nn2)sn1` [Compound 84, 3-Methyl-2-(6-{[(3-methyl-1,2-thiazol-5-yl)amino]methyl}pyridazin-3-yl)-5-(trifluoromethyl)phenol] yielded an IC50 [1] of 500 to 1000 nM and an IC50 [2] of 500 to 1000 nM.

`Cc1cc(C(F)(F)F)cc(O)c1-c1ccc(CNC2CN3CCC2CC3)nn1` (centres unmarked) [Compound 154] showed an IC50 [1] of no less than 10000 nM and an IC50 [2] of no less than 10000 nM.

With `Cc1cc(Cl)cc(O)c1-c1ccc(CN2CCOC2=O)nn1` [Compound 67, 3-((6-(4-Chloro-2-hydroxy-6-methylphenyl)pyridazin-3-yl)methyl)oxazolidin-2-one] the IC50 [1] was less than 500 nM and the IC50 [2] was less than 500 nM.

`Cc1cc(C(F)(F)F)cc(O)c1-c1ccc(CNC2CCOC2)nn1` (centres unmarked) [Compound 103] was tested, and the IC50 [1] was less than 500 nM and the IC50 [2] was less than 500 nM.

For `Cc1cc(C(F)(F)F)cc(O)c1-c1ccc(C(C)N2CCCC2=O)nn1` (centres unmarked) [Compound 80, 1-(1-{6-[2-Hydroxy-6-methyl-4-(trifluoromethyl)phenyl]pyridazin-3-yl}ethyl)pyrrolidin-2-one], the IC50 [1] was 1000 to 3000 nM and the IC50 [2] was less than 500 nM.

For `Cc1cc(C(F)(F)F)cc(O)c1-c1ccc(COC2CCOCC2)nn1` [Compound 17, 3-methyl-2-(6-(((tetrahydro-2H-pyran-4-yl)oxy)methyl)pyridazin-3-yl)-5-(trifluoromethyl)phenol], the IC50 [1] was 1000 to 3000 nM and the IC50 [2] was 3000 to 10000 nM.

`Cc1cc(C(F)(F)F)cc(O)c1-c1ccc(CNC(C)C)nn1` [Compound 99] showed an IC50 [1] of 500 to 1000 nM and an IC50 [2] of less than 500 nM.

`Cc1cc(C(F)(F)F)cc(O)c1-c1ccc(CNCc2ccn(C)n2)nn1` [Compound 127] showed an IC50 [1] of 1000 to 3000 nM and an IC50 [2] of 500 to 1000 nM.

In the case of `Oc1cc(C(F)(F)F)ccc1-c1ccc(CNC2CCOCC2)nn1` [Compound 13, 2-(6-(((Tetrahydro-2H-pyran-4-yl)amino)methyl)pyridazin-3-yl)-5-(trifluoromethyl)phenol], the IC50 [1] is reported as 3000 to 10000 nM and the IC50 [2] is reported as 3000 to 10000 nM.

Work on `Cc1cc(C(F)(F)F)cc(O)c1-c1ccc(Cn2ccn(C)c2=N)nn1` [Compound 123] yielded an IC50 [1] of 500 to 1000 nM and an IC50 [2] of 1000 to 3000 nM.

`Cc1cc(Cl)cc(O)c1-c1ccc(CN[C@H]2CCC(=O)N(C)C2)nn1` [Compound 87, (5S)-5-({[6-(4-Chloro-2-hydroxy-6-methylphenyl)pyridazin-3-yl]methyl}amino)-1-methylpiperidin-2-one] showed an IC50 [1] of less than 500 nM and an IC50 [2] of less than 500 nM.

`Cc1cc(C(F)(F)F)cc(O)c1-c1ccc(CNC2CCCCC2)nn1` [Compound 100] gave an IC50 [1] of 1000 to 3000 nM and an IC50 [2] of 1000 to 3000 nM.

Work on `Cc1cc(C(F)(F)F)cc(O)c1-c1ccc(CNC2CC3(C2)CS(=O)(=O)C3)nn1` [Compound 3, 6-(((6-(2-Hydroxy-6-methyl-4-(trifluoromethyl)phenyl)pyridazin-3-yl)methyl)amino)-2-thiaspiro[3.3]heptane 2,2-dioxide] yielded an IC50 [1] of 500 to 1000 nM and an IC50 [2] of 500 to 1000 nM.

Work on `Cc1cc(C(F)(F)F)cc(O)c1-c1ccc(CNC2CCN(C)C2)nn1` (centres unmarked) [Compound 71, 3-Methyl-2-(6-(((1-methylpyrrolidin-3-yl)amino)methyl)pyridazin-3-yl)-5-(trifluoromethyl)phenol dihydrochloride] yielded an IC50 [1] of 1000 to 3000 nM and an IC50 [2] of 500 to 1000 nM.

With `Cc1cc(C(F)(F)F)cc(O)c1-c1ccc(CNCC2CCOC2)nn1` (centres unmarked) [Compound 105] the IC50 [1] was 3000 to 10000 nM and the IC50 [2] was 1000 to 3000 nM.

`Cc1cc(C(F)(F)F)cc(O)c1-c1ccc(CNCC(C)(C)O)nn1` [Compound 117] gave an IC50 [1] of 1000 to 3000 nM and an IC50 [2] of 500 to 1000 nM.

For `Cc1cc(Cl)cc(O)c1-c1ccc(CN(C)[C@H]2CCOC2)nn1` [Compound 59, (S)-5-Chloro-3-methyl-2-(6-((methyl(tetrahydrofuran-3-yl)amino)methyl)pyridazin-3-yl)phenol], the IC50 [1] was 500 to 1000 nM and the IC50 [2] was 1000 to 3000 nM.

Work on `Cc1cc(C(F)(F)F)cc(O)c1-c1ccc(CN2CCN(C)C(=O)C2)nn1` [Compound 132] yielded an IC50 [1] of 1000 to 3000 nM and an IC50 [2] of 1000 to 3000 nM.

`Cc1cc(C(F)(F)F)cc(O)c1-c1ccc(CNC2CC3CCOC32)nn1` (centres unmarked) [Compound 4, 2-(6-(((2-Oxabicyclo[3.2.0]heptan-7-yl)amino)methyl)pyridazin-3-yl)-3-methyl-5-(trifluoromethyl)phenol] showed an IC50 [1] of 1000 to 3000 nM and an IC50 [2] of 1000 to 3000 nM.

`Cc1cc(CNC2CCOCC2)nnc1-c1ccc(C(F)(F)F)cc1O` [Compound 11, 2-(4-Methyl-6-(((tetrahydro-2H-pyran-4-yl)amino)methyl)pyridazin-3-yl)-5-(trifluoromethyl)phenol] was tested, and the IC50 [1] was 1000 to 3000 nM and the IC50 [2] was 1000 to 3000 nM.

Work on `Cc1cc(C(F)(F)F)cc(O)c1-c1ccc(CNc2nccn2C)nn1` [Compound 82, 3-Methyl-2-(6-{[(1-methyl-1H-imidazol-2-yl)amino]methyl}pyridazin-3-yl)-5-(trifluoromethyl)phenol hydrochloride] yielded an IC50 [1] of 1000 to 3000 nM and an IC50 [2] of 500 to 1000 nM.

`Cc1cc(Br)cc(O)c1-c1ccc(CNC2CCOCC2)nn1` [Compound 29, 5-Bromo-3-methyl-2-(6-(((tetrahydro-2H-pyran-4-yl)amino)methyl)pyridazin-3-yl)phenol] gave an IC50 [1] of less than 500 nM and an IC50 [2] of less than 500 nM.

`CC(=O)N1CCC(NCc2ccc(-c3c(C)cc(C(F)(F)F)cc3O)nn2)C1` (centres unmarked) [Compound 24] was tested, and the IC50 [1] was 500 to 1000 nM and the IC50 [2] was less than 500 nM.

`Cc1cc(C(F)(F)F)cc(O)c1-c1ccc(CN)nn1` [Compound 20, 2-[6-(aminomethyl)pyridazin-3-yl]-3-methyl-5-(trifluoromethyl)phenol] showed an IC50 [1] of 3000 to 10000 nM and an IC50 [2] of 1000 to 3000 nM.

In the case of `Cc1cc(C(F)(F)F)cc(O)c1-c1ccc(COC2CCCN(C)C2)nn1` (centres unmarked) [Compound 41, 3-Methyl-2-(6-(((1-methylpiperidin-3-yl)oxy)methyl)pyridazin-3-yl)-5-(trifluoromethyl)phenol hydrochloride], the IC50 [1] is reported as 1000 to 3000 nM and the IC50 [2] is reported as 500 to 1000 nM.

`Cc1cc(C(F)(F)F)cc(O)c1-c1ccc(CNCC2CC2)nn1` [Compound 97] was tested, and the IC50 [1] was 1000 to 3000 nM and the IC50 [2] was 500 to 1000 nM.

`CC(=O)N1CCC(NCc2ccc(-c3c(C)cc(C(F)(F)F)cc3O)nn2)CC1` [Compound 142] showed an IC50 [1] of 500 to 1000 nM and an IC50 [2] of less than 500 nM.

`Cc1cc(NCc2ccc(-c3c(C)cc(C(F)(F)F)cc3O)nn2)on1` [Compound 149] was tested, and the IC50 [1] was 1000 to 3000 nM and the IC50 [2] was 1000 to 3000 nM.

In the case of `Cc1cc(Cl)cc(O)c1-c1ccc(CN2CCCC2=O)nn1` [Compound 62, 1-[[6-(4-chloro-2-hydroxy-6-methyl-phenyl)pyridazin-3-yl]methyl]pyrrolidin-2-one], the IC50 [1] is reported as less than 500 nM and the IC50 [2] is reported as less than 500 nM.

`CO[C@H]1CCN(Cc2ccc(-c3c(C)cc(Cl)cc3O)nn2)C1` [Compound 61, (S)-5-Chloro-2-(6-((3-methoxypyrrolidin-1-yl)methyl)pyridazin-3-yl)-3-methylphenol] showed an IC50 [1] of 1000 to 3000 nM and an IC50 [2] of 1000 to 3000 nM.
